The results in this text go back to US12441703B2, “Carboxamides as modulators of sodium channels” (VERTEX PHARMACEUTICALS INCORPORATED, priority 2019, dated 2025).

One may read the pIC50 as the negative decadic logarithm of the IC50, by convention in mol/L.

pIC50: −log10 of the molar value. Bounds are passed on as bounds.

Chain of human NaV 1.8 (Q9Y5Y9 whole entry, looked up, the tested form may be a part): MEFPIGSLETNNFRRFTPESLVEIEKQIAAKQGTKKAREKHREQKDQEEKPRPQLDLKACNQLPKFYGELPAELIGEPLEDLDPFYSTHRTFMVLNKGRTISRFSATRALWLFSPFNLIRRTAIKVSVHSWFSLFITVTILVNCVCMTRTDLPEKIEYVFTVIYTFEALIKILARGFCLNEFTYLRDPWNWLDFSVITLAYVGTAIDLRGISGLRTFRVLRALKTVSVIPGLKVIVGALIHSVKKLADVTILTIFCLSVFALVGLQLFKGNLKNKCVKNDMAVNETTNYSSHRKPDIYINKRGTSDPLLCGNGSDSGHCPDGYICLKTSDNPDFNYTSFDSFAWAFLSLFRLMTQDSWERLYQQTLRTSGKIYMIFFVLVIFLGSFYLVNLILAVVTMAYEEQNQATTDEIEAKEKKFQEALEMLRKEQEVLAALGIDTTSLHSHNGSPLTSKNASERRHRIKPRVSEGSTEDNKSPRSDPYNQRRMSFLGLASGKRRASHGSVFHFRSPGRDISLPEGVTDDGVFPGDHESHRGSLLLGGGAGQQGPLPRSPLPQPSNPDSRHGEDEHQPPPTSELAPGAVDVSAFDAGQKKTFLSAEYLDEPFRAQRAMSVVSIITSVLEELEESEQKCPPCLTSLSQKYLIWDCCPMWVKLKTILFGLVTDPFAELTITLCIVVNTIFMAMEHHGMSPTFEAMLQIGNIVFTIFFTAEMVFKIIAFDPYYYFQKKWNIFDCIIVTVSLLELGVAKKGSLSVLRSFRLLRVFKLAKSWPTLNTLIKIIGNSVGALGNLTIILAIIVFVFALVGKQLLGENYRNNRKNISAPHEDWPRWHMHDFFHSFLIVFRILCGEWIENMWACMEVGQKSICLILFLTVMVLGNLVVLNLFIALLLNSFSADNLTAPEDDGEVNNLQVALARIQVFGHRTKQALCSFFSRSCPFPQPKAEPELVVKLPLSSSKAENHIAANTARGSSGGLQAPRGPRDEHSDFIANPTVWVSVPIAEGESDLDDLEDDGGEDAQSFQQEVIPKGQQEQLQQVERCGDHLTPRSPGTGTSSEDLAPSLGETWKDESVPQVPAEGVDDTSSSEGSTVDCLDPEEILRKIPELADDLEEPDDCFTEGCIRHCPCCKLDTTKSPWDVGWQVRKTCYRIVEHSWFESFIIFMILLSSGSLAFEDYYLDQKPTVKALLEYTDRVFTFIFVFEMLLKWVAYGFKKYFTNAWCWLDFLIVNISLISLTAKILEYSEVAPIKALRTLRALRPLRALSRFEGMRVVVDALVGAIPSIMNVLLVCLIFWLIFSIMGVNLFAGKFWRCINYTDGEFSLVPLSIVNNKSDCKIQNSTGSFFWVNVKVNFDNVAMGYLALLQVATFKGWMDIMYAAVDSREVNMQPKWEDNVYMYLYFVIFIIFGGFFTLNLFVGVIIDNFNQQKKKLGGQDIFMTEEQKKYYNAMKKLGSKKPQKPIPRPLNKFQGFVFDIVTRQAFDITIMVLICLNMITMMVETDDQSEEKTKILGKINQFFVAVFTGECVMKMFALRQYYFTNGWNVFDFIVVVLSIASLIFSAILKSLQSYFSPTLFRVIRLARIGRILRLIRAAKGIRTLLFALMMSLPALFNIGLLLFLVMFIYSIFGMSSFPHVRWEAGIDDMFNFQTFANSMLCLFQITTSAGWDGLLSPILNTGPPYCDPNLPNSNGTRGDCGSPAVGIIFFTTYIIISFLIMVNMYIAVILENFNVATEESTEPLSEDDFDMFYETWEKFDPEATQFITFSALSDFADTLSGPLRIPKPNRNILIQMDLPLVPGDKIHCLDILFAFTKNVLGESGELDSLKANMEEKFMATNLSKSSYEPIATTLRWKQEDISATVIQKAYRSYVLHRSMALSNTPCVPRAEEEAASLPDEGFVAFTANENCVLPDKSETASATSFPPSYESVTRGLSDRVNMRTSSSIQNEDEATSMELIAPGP

This test deals with human NaV 1.8 (Homo sapiens, UniProt Q9Y5Y9). Kind of test: E-VIPR assay for detecting and measuring NaV inhibition properties. It is filed as cell-based. As to conditions: E-VIPR assay conducted in the presence of human serum; HEK cells expressing truncated human NaV 1.8; read-out: IC50. The method in brief:
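HEK cells with truncated human NaV1.8 plus KIR2.1 BacMam, hexyl dye loaded 20 min, compound 30 min at room temperature, 11-point 3-fold series […], 0.625% DMSO, with or without human serum. E-VIPR biphasic stimulation at 10 Hz for 10 s; membrane-potential response read as normalized coumarin/oxonol ratio.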
Turning to `COc1cc(F)ccc1Oc1ccc(C(F)(F)F)c(C)c1C(=O)Nc1ccc(C(N)=O)nc1` [Compound 232, 5-[[6-(4-fluoro-2-methoxy-phenoxy)-2-methyl-3-(trifluoromethyl)benzoyl]amino]pyridine-2-carboxamide], the negative-log IC50 (pIC50) is 5.82.

Take `Cc1cc(Cl)ccc1Oc1ccc(C(F)(F)F)c(C)c1C(=O)Nc1ccc(C(N)=O)nc1` [Compound 233, 5-[[6-(4-chloro-2-methyl-phenoxy)-2-methyl-3-(trifluoromethyl)benzoyl]amino]pyridine-2-carboxamide]: the pIC50 is 5.85. As to `Cc1c(C(F)(F)F)ccc(Oc2ccc(Cl)cc2F)c1C(=O)Nc1ccc(C(N)=O)nc1` [Compound 234, 5-[[6-(4-chloro-2-fluoro-phenoxy)-2-methyl-3-(trifluoromethyl)benzoyl]amino]pyridine-2-carboxamide], the pIC50 is less than 5.52. The value for `COc1ccc(Oc2ccc(C(F)(F)F)c(C)c2C(=O)Nc2ccc(C(N)=O)nc2)c(Cl)c1` [Compound 235, 5-[[6-(2-chloro-4-methoxy-phenoxy)-2-methyl-3-(trifluoromethyl)benzoyl]amino]pyridine-2-carboxamide] was 5.85. With `Cc1cc(OC(F)(F)F)ccc1Oc1ccc(C(F)(F)F)c(C)c1C(=O)Nc1ccc(C(N)=O)nc1` [Compound 236, 5-[[2-methyl-6-[2-methyl-4-(trifluoromethoxy)phenoxy]-3-(trifluoromethyl)benzoyl]amino]pyridine-2-carboxamide], the pIC50 is 6.77. Under `COc1cc(OC(F)(F)F)ccc1Oc1cc(C(C)(C)C)cc(C)c1C(=O)Nc1ccnc(C(N)=O)c1` [Compound 237, 4-[[4-tert-butyl-2-[2-methoxy-4-(trifluoromethoxy)phenoxy]-6-methyl-benzoyl]amino]pyridine-2-carboxamide] stands 7.03; under `COc1cc(OC(F)(F)F)ccc1Oc1cc(C(C)(C)C)cnc1C(=O)Nc1ccnc(C(N)=O)c1` [Compound 238, 5-tert-butyl-N-(2-carbamoyl-4-pyridyl)-3-[2-methoxy-4-(trifluoromethoxy)phenoxy]pyridine-2-carboxamide], 6.16; under `Cc1c2c(cc(Oc3ccc(OC(F)(F)F)cc3Cl)c1C(=O)Nc1ccnc(C(N)=O)c1)OC(F)(F)O2` [Compound 239, 4-[[6-[2-chloro-4-(trifluoromethoxy)phenoxy]-2,2-difluoro-4-methyl-1,3-benzodioxole-5-carbonyl]amino]pyridine-2-carboxamide], 7.14. In the case of `Cc1c2c(cc(Oc3ccc(OC(F)(F)F)cc3Cl)c1C(=O)Nc1ccc(C(N)=O)nc1)OC(F)(F)O2` [Compound 240, 5-[[6-[2-chloro-4-(trifluoromethoxy)phenoxy]-2,2-difluoro-4-methyl-1,3-benzodioxole-5-carbonyl]amino]pyridine-2-carboxamide], the pIC50 was 6.24. As to `Cc1cc(OC(F)(F)F)cc(Oc2ccc(OC(F)(F)F)cc2Cl)c1C(=O)Nc1ccnc(C(N)=O)c1` [Compound 241, 4-[[2-[2-chloro-4-(trifluoromethoxy)phenoxy]-6-methyl-4-(trifluoromethoxy)benzoyl]amino]pyridine-2-carboxamide], the pIC50 was 6.72. Take `COc1cc(OC(F)(F)F)ccc1Oc1cc(OC(F)(F)F)cc(C)c1C(=O)Nc1ccnc(C(N)=O)c1` [Compound 242, 4-[[2-[2-methoxy-4-(trifluoromethoxy)phenoxy]-6-methyl-4-(trifluoromethoxy)benzoyl]amino]pyridine-2-carboxamide]: the pIC50 is 7.89.

With `Cc1cc(OC(F)(F)F)cc(Oc2ccc(OC(F)(F)F)cc2Cl)c1C(=O)Nc1ccc(C(N)=O)nc1` [Compound 243, 5-[[2-[2-chloro-4-(trifluoromethoxy)phenoxy]-6-methyl-4-(trifluoromethoxy)benzoyl]amino]pyridine-2-carboxamide], the pIC50 was 5.73.

For `COc1cc(OC(F)(F)F)ccc1Oc1ccc(C(F)F)c(C)c1C(=O)Nc1ccnc(C(N)=O)c1` [Compound 244, 4-[[3-(difluoromethyl)-6-[2-methoxy-4-(trifluoromethoxy)phenoxy]-2-methyl-benzoyl]amino]pyridine-2-carboxamide], the pIC50 was 7.77. The value for `COc1cc(OC(F)(F)F)ccc1Oc1cc(OC(F)(F)F)cc(C)c1C(=O)Nc1ccc(C(N)=O)nc1` [Compound 245, 5-[[2-[2-methoxy-4-(trifluoromethoxy)phenoxy]-6-methyl-4-(trifluoromethoxy)benzoyl]amino]pyridine-2-carboxamide] was 6.48. Under `COc1cc(OC(F)(F)F)ccc1Oc1cc(C(F)(F)F)c(C2CC2)nc1C(=O)Nc1ccnc(C(N)=O)c1` [Compound 246, N-(2-carbamoyl-4-pyridyl)-6-cyclopropyl-3-[2-methoxy-4-(trifluoromethoxy)phenoxy]-5-(trifluoromethyl)pyridine-2-carboxamide] stands 6.85; under `COc1cc(OC(F)(F)F)ccc1Oc1cc(C(F)(F)F)c(C)nc1C(=O)Nc1ccnc(C(N)=O)c1` [Compound 247, N-(2-carbamoyl-4-pyridyl)-3-[2-methoxy-4-(trifluoromethoxy)phenoxy]-6-methyl-5-(trifluoromethyl)pyridine-2-carboxamide], 6.72; under `COc1cc(OC(F)(F)F)ccc1Oc1cc(C2CC2)cc(C)c1C(=O)Nc1ccnc(C(N)=O)c1` [Compound 248, 4-[[4-cyclopropyl-2-[2-methoxy-4-(trifluoromethoxy)phenoxy]-6-methyl-benzoyl]amino]pyridine-2-carboxamide], 7.57. Regarding `NC(=O)c1cc(NC(=O)c2c(Oc3ccc(OC(F)(F)F)cc3O)ccc(C(F)(F)F)c2F)cc[n+]1[O-]` [Compound 249, 4-[[2-fluoro-6-[2-hydroxy-4-(trifluoromethoxy)phenoxy]-3-(trifluoromethyl)benzoyl]amino]-1-oxido-pyridin-1-ium-2-carboxamide], the pIC50 is 5.53. The value for `NC(=O)c1cc(NC(=O)c2c(-c3ccc(OC(F)(F)F)cc3)ccc(C(F)(F)F)c2F)ccn1` [Compound 250, 4-[[2-fluoro-6-[4-(trifluoromethoxy)phenyl]-3-(trifluoromethyl)benzoyl]amino]pyridine-2-carboxamide] was less than 5.52; that for `COc1cc(F)ccc1-c1ccc(C(F)(F)F)c(F)c1C(=O)Nc1ccnc(C(N)=O)c1` [Compound 251, 4-[[2-fluoro-6-(4-fluoro-2-methoxy-phenyl)-3-(trifluoromethyl)benzoyl]amino]pyridine-2-carboxamide] was less than 5.52; that for `COc1cc(F)ccc1-c1ccc(C(F)(F)F)cc1C(=O)Nc1ccnc(C(N)=O)c1` [Compound 252, 4-[[2-(4-fluoro-2-methoxy-phenyl)-5-(trifluoromethyl)benzoyl]amino]pyridine-2-carboxamide] was less than 5.52. Take `COc1cc(F)ccc1-c1ccc(C(F)(F)F)cc1C(=O)Nc1ccc(F)c(C(N)=O)c1` [Compound 253, N-(3-carbamoyl-4-fluoro-phenyl)-2-(4-fluoro-2-methoxy-phenyl)-5-(trifluoromethyl)benzamide]: the pIC50 is less than 5.52. Take `NC(=O)c1cc(NC(=O)c2ccc(C(F)(F)F)cc2-c2ccc(OC(F)(F)F)cc2)ccn1` [Compound 254, 4-[[2-[4-(trifluoromethoxy)phenyl]-4-(trifluoromethyl)benzoyl]amino]pyridine-2-carboxamide]: the pIC50 was less than 5.52.
